# Data published in the SangsterLogP compilation.
row,Compound,logP
1,O=C(Oc1ccccc1Cl)N1CCCC1,3.13
2,O=C(Oc1ccc(Cl)cc1Cl)N1CCCC1,3.94
3,Nc1c([N+](=O)[O-])ccc(Oc2ccccc2)c1Cl,4.04
4,C#CCOC1=Nc2ccc(OC(=O)N3CCCC3)cc2OC1,2.93
5,O=C(Oc1ccccc1)N1CCCC1,2.73
6,CCOC(=O)C(C)OC(=O)c1cc(Oc2ccc(C(F)(F)F)cc2Cl)ccc1[N+](=O)[O-] (stereo not drawn),4.81
7,COC(=O)c1cc(Oc2ccc(C(F)(F)F)cc2Cl)ccc1[N+](=O)[O-],4.26
8,C#CCOc1cc(OC(=O)N2CCCCC2)c(Cl)cc1Cl,4.25
9,O=C(Oc1cc(O)c(Cl)cc1Cl)N1CCCC1,2.98
10,O=[N+]([O-])c1ccc(Oc2ccc(C(F)(F)F)cc2Cl)cc1,4.54
11,O=[N+]([O-])c1ccc(Oc2ccc(Cl)cc2Cl)cc1,4.64
12,C#CCOc1cc(OC(=O)N2CCCC2)c(Cl)cc1Cl,3.82

# Continued, values first:
row,logP,Compound
1,3.42,C#CCOc1cc(OC(=O)N2CCC(F)(F)C2)c(Cl)cc1Cl
2,3.95,C#CCOc1cc(OC(=O)N(CC)CC)c(Cl)cc1Cl
3,3.38,O=C(Oc1ccc(Cl)cc1)N1CCCC1
4,3.57,C#CCOc1cc(OC(=O)N2CCC(F)(F)CC2)c(Cl)cc1Cl
5,4.4,Cc1cccc(Oc2ccc([N+](=O)[O-])cc2)c1
6,4.2,CC(C)OC(=O)c1cc(OC(=O)N2CCCC2)c(F)cc1Cl
7,4.27,O=C(O)COC(=O)c1cc(Oc2ccc(C(F)(F)F)cc2Cl)ccc1[N+](=O)[O-]
8,5.04,COC(=O)c1cc(Oc2ccc(C(F)(F)F)cc2Cl)ccc1Cl
9,4.33,O=[N+]([O-])c1ccc(Oc2ccc(C(F)(F)F)cc2Cl)cc1Oc1ccoc1
10,4.21,COC(=O)c1cc(Oc2cc(C(F)(F)F)ccc2Cl)ccc1[N+](=O)[O-]
11,4.54,C=COC(=O)[C@@H](C)Oc1cc(Oc2ccc(C(F)(F)F)cc2Cl)ccc1[N+](=O)[O-]
12,4.54,COC(=O)CC(C)(N=O)c1cc(Oc2ccc(C(F)(F)F)cc2Cl)ccc1[N+](=O)[O-] (stereo not drawn)
13,4.67,CC(C)OC(=O)c1cc(OC(=O)N2CCCC2)c(Cl)cc1Cl
14,3.57,COC(=O)c1cc(S(=O)(=O)c2ccc(C(F)(F)F)cc2Cl)ccc1[N+](=O)[O-]
15,3.65,COC(=O)c1cc(S(=O)c2ccc(C(F)(F)F)cc2Cl)ccc1[N+](=O)[O-] (stereo not drawn)
16,3.95,COC(=O)c1cc(OC(=O)N2CCCC2)c(Cl)cc1Cl
